According to patent US6191273A, “Substituted cyclic compounds and mixtures comprising same” (Isis Pharmaceuticals, Inc., priority 1998, dated 2001):

Legend:
[1] = tested on: S. pyogenes [American Type Culture Collection (ATCC) # 14289]; assay: Streptococcus pyogenes bacterial growth assay (Tier I antimicrobial); type: cell-based; settings: read-out: inhibition in the S. pyogenes procedure
Procedure: S. pyogenes [American Type Culture Collection (ATCC) # 14289] is used in this bacterial growth assay. To initiate the exponential phase of bacterial growth prior to the assay, a sample of bacteria is grown for 6 hours in Todd Hewitt Broth (Difco 0492-17-6) at 37° C. then re-inoculated into fresh media and grown overnight at 37° C. The bacterial cells are collected by centrifugation for 10 minutes at 3200 rpm, diluted and absorbance read at 595 nm. Bacteria diluted in 2× Todd-Hewitt Broth (75 μL) are added to the compound mixtures (75 μL) for a total volume of 150 μL. The assays are performed in 96-well microplates with approximately 1×10^4 colony forming units (CFU) per well. The plates are incubated at 37° C. and growth monitored over a 24 hour period by measuring the optical density at 595 nm using a BioRad model 3550 UV microplate reader. The percentage of growth relative to a well containing no test compound or library is determined. Ampicillin and tetracycline antibiotic controls are concurrently tested in each screening assay.
Compounds are assayed in duplicate at a single dose. Compounds which show inhibitory activity are re-tested in duplicate at multiple doses to determine minimum inhibitory concentration (MIC).

E. coli imp- = E. coli imp- bacterial growth assay (Tier I antimicrobial); type: cell-based; settings: Escherichia coli, read-out: inhibition in the E. coli procedure
Procedure: The strain E. coli imp- obtained from Spencer Benson (Sampson, B. A., Misra, R. & Benson, S. A., Genetics, 1989, 122, 491-501, Identification and characterization of a new gene of Escherichia coli K-12 involved in outer membrane permeability) is used in this bacterial growth assay. To initiate the exponential phase of bacterial growth prior to the assay, a sample of bacteria is grown for 6 hours in Mueller Hinton II Broth (BBL 12322) at 37° C. then re-inoculated into fresh media and grown overnight at 37° C. The bacterial cells are collected by centrifugation for 10 minutes at 3200 rpm, diluted and absorbance read at 595 nm. Bacteria diluted in 2× Mueller Hinton II Broth (75 μL) are added to the compound mixtures (75μL) for a total volume of 150 μL. The assays are performed in 96-well microplates with approximately 1×10^4 colony forming units (CFU) per well. The plates are incubated at 37° C. and growth monitored over a 24 hour period by measuring the optical density at 595 nm using a BioRad model 3550 UV microplate reader. The percentage of growth relative to a well containing no compound is determined. Ampicillin and tetracycline antibiotic controls are concurrently tested in each screening assay.
Compounds are assayed in duplicate at a single dose. […]

Compound	inhibition at 100 µM [1]	inhibition at 100 µM (E. coli imp-)
N=C(N)NCc1cccc(CN(CCNCCCO)Cc2cccc(C(F)(F)F)c2)n1 [Example 71]	95%	–
NC(=O)CN(Cc1cccc(C(F)(F)F)c1)Cc1cccc(CN(CCNCCCO)Cc2cccc(C(F)(F)F)c2)n1 [Example 66]	95%	87%
